Data published in patent publication US10808008B2, “Aromatic-cationic peptides and uses of same” (Cornell University, priority 2012, dated 2020).
Entries after “also recorded” stand apart in the source; their conditions may differ.

How the values were obtained:
Format in all cases: biochemical
[1] = target: cytochrome c/cardiolipin complex (Equus caballus, UniProt P00004); assay: Soret circular dichroism of cytochrome c with cardiolipin; details: 10 μM cytochrome c; for protection against CL-induced disappearance of negative Cotton effect: 30 μg/ml CL, 10 μM peptide, 20 mM HEPES pH 7.5, 25° C.; for loss of the negative Cotton peak at 419 nm caused by cardiolipin: 30 μg/ml cardiolipin, peptide 1:1 with cytochrome c, pH 7.4
cytochrome c/cardiolipin complex, sequence (P00004 2-105 limits assumed, one chain of several): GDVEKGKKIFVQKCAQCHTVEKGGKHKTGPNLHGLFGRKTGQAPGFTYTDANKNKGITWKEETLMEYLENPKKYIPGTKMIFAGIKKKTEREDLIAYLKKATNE
Experimental: Circular dichroism (CD) was carried out to examine the effects of the peptides on protecting the heme environment of cytochrome c from the acyl chain of CL. For heme proteins, the Soret CD spectrum is strictly correlated with the heme pocket conformation. In particular, the negative 416-420 nm Cotton effect is considered diagnostic of Fe(III)-Met80 coordination in native cytochrome c (Santucci and Ascoli, 1997). […] CD spectra were obtained using AVIV CD Spectrometer Model 410.
Changes in the Soret CD spectrum of cytochrome c (10 μM) were recorded in the absence (dotted line) and presence (dashed line) of 30 μg/ml CL, plus addition of different peptides (10 μM) (solid line) (FIG. 14). CD measurements were carried out using 20 mM HEPES, pH 7.5, at 25° C. and expressed as molar ellipticity (A) (m Deg). […] Accordingly, aromatic-cationic peptides of the present disclosure are useful for the prevention or treatment of diseases or disorders characterized by dysregulation of cardiolipin and/or cytochrome c, and/or diseases or disorders characterized by dysregulation of the cardiolipin/cytochrome c interaction. In addition, aromatic-cationic peptides of the present disclosure are useful to protect the heme environment of cytochrome c from the acyl chain of cardiolipin.
Circular Dichroism (CD) spectra were collected with an AVIA 62 DS spectrophotometer equipped with a sample temperature controller. CD spectra of the Soret region (370-450 nm) were recorded with 10-mm path length cells containing 20 mM Hepes, pH 7.4, and 10 μM cytochrome c, in the presence or absence of 30 μg/ml cardiolipin and different SS peptide analogs (SS-02, [atn]SS-02, [ald]SS-02, and SS-31). The maximum lipid concentration was kept low to avoid spectral distortions due to excessive light scattering. All measurements were done at 25° C. All spectra were corrected for background, and the final spectrum shown represents the average of at least three experiments.

[2] = target: cardiolipin-cytochrome c complex (Equus caballus, UniProt P00004); assay: Cytochrome c reduction in the presence of cardiolipin; details: for rate of cytochrome c reduction in the presence of cardiolipin: 40 μM peptide, 100 μg/ml cardiolipin, 50 μM ascorbate, 10% with cardiolipin alone
cardiolipin-cytochrome c complex, sequence (P00004 2-105 limits assumed, one chain of several): as above
Experimental: Reduction of cytochrome c (20 μM) was induced by the addition of glutathione (500 μM) in the absence or presence of CL (100 μg/ml) (FIG. 15A). Reduction of cytochrome c was monitored by absorbance at 550 nm using a 96-well UV-VIS plate reader (Molecular Devices). Addition of CL decreased the rate of cytochrome c reduction by half.
The time course of cytochrome c reduction by ascorbate was recorded at 550 nm and 570 nm using a 96-well plate reader (Molecular Devices, Sunnyvale, Calif.). For all reactions, cytochrome c was preincubated with cardiolipin in the presence or absence of SS peptides for 1 min. […] Ascorbate (50 μM) was added to initiate the reduction of cytochrome c, and the absorbance was recorded for 5 min. The rate of reduction was calculated based on slope of the change in absorbance intensity of 550 nm over 570 nm.

cytochrome c/CL complex = cytochrome c/CL complex (Equus caballus, UniProt P00004); assay: Peroxidase activity of cytochrome c/cardiolipin complex (Amplex Red); details: 2 μM cytochrome c; for peroxidation rate of cytochrome c: 10 μM peptide, cardiolipin 100 μg/ml
cytochrome c/CL complex, sequence (P00004 2-105 limits assumed, one chain of several): as above
Description: The six coordination of the heme in cytochrome c prevents direct interaction of H2O2 with the catalytic metal site, and native cytochrome c in solution is a poor peroxidase. Upon interaction with CL, cytochrome c undergoes a structural change with rupture of the Fe-Met80 coordination. […] The mechanism of action of cytochrome c peroxidase is similar to that of other peroxidases, such as horse radish peroxidase (HRP). Thus it is possible to use the amplex red-HRP reaction to investigate cytochrome c peroxidase activity. In the presence of peroxidase, amplex red (AR) reacts with H2O2 to form the red-fluorescent oxidation product, resorufin (Ex/Em=571/585).
Cytochrome c (2 μM) was mixed with CL (25 μg/ml) and 10 μM H2O2 in 20 mM HEPES, pH 7.4. Amplex red (50 μM) was then added and fluorescence emission monitored in real time using Hitachi F4500 fluorescence spectrophotometer. Addition of amplex red elicited rapid increase in fluorescence signal due to resorufin formation, providing direct evidence for peroxidase activity of cytochrome c/CL complex (FIG. 19A).
Assessment of cytochrome c peroxidase activity was achieved using the Amplex® Red assay (Invitrogen/Life Technologies, Carlsbad, Calif.). Amplex® Red is a reagent that reacts with H2O2 in a 1:1 stoichiometry to produce highly fluorescent resorufin (λex/λem=570/585) in the presence of a peroxidase. In this assay, cytochrome c is added in place of horseradish peroxidase. 2 μM cytochrome c was incubated with cardiolipin or cardiolipin-POPC liposomes (10 μg/ml) for 1 min in 20 mM HEPES (pH 7.4) or deionized water prior to the addition of 50 μM Amplex® Red reagent and 10 μM H2O2, and the reaction was allowed to proceed for an additional 5 minutes. The continuous time course data were obtained using Hitachi F-4500 fluorescence spectrophotometer. When comparing the different SS peptide analogs (10 μM) in inhibiting peroxidase activity cytochrome c (2 μM) in the presence of cardiolipin (100 μg/ml), a microplate spectrofluorometer (Molecular Devices, Sunnyvale, Calif.) was used. Horseradish peroxidase (HRP) was used for comparison, and the HRP concentration (0.001 U/ml) was optimized to match the rate of Amplex® Red peroxidation by cardiolipin-cytochrome c complex.

[3] = target: cytochrome c and cardiolipin (Equus caballus, UniProt P00004); assay: Oxidation of ferrous cytochrome c by cardiolipin (A550); details: 20 μM cytochrome c reduced by 50 μM ascorbic acid; 100 μg/ml cardiolipin
cytochrome c and cardiolipin, sequence (P00004 2-105 limits assumed): as the sequence (P00004 2-105 limits assumed, one chain of several) above
Experimental: Cytochrome c (20 μM) was reduced by 50 μM ascorbic acid until all available functionally active cytochrome c was reduced. The reduction of cytochrome c was monitored by the appearance of a peak at 550 nm in its absorbance spectrum (Molecular Devices, Sunnyvale, Calif.). […] The rate of oxidation was calculated based on slope of the change in absorbance intensity of 550 nm over 570 nm.

Row | Substance | protection against CL-induced disappearance of negative Cotton effect [1] | loss of the negative Cotton peak at 419 nm caused by cardiolipin [1] | rate of cytochrome c reduction in the presence of cardiolipin ([2]; 20 μM cytochrome c) | peroxidation rate of cytochrome c (cytochrome c/CL complex) | oxidation of cytochrome c by cardiolipin (loss of the 550 nm peak) [3] | inhibitory action of CL on cytochrome c reduction ([2]; 20 μM cytochrome c, 500 μM glutathione, CL 100 μg/ml, SS-31 20, 40 or 100 μM) | inhibitory effect of CL on kinetics of cytochrome c reduction ([2]; 500 μM GSH or 50 μM ascorbate) | rate of amplex red peroxidation / kinetics of cytochrome c peroxidase activity (cytochrome c/CL complex; CL 25 μg/ml, 10 μM H2O2, 50 μM amplex red)
1 | 2′,6′-Dmt-D-Arg-Ald-Lys-NH2 [SS-36] | Protect the Heme Environment of Cytochrome c from the Acyl Chain of CL | prevented | about 90% | about 20 % of control | inhibition of cytochrome c oxidation |  |  | 
2 | 2′,6′-Dmt-D-Arg-Phe-(atn)Dap-NH2 [SS-19] | Protect the Heme Environment of Cytochrome c from the Acyl Chain of CL | prevented | about 50% | ~75 % of control | inhibition of cytochrome c oxidation |  |  | 
3 | D-Arg-2′,6′-Dmt-Lys-Phe-NH2 [SS-31] | Protect the Heme Environment of Cytochrome c from the Acyl Chain of CL | prevented | 100% | ~35 % of control | prevented by the addition of SS-31 in a concentration-dependent manner | dose-dependently prevented the inhibitory action of CL | dose-dependently overcame the inhibitory effect of CL | decreased the rate of amplex red peroxidation; also recorded: dose-dependently reduced the kinetics of cytochrome c peroxidase activity
